Results: publication doi:10.1101/2024.08.19.608619, “Discovery of potent SARS-CoV-2 nsp3 macrodomain inhibitors uncovers lack of translation to cellular antiviral response” (bioRxiv, 2024)
Several values for one entry are separate records, joined by “and”; a condition that tells them apart may be missing. Equal entries are not always repeated. Where two headings read alike, the source gives them in different places.

Assays:
[1] = tested on: SARS-CoV-2, isolate USA-WA1/2020; assay: microbe, parasite or virus in culture; assay type: cell-based; details: HeLa-ACE2 SARS-CoV-2 antiviral effect without P-gp inhibitor; for EC50: read-out: ec50; for EC90: read-out: ec90
[2] = molecular target: T1, human CHRM2 (M2) (Homo sapiens, UniProt P08172); assay: Eurofins CEREP panel, M2; assay type: binding; details: M2 (h) (antagonist radioligand); test compound concentration 10 uM
T1 construct: purchased Eurofins Cerep (SafetyScreen44), recognised from the panel format
T1 sequence (P08172 1-466): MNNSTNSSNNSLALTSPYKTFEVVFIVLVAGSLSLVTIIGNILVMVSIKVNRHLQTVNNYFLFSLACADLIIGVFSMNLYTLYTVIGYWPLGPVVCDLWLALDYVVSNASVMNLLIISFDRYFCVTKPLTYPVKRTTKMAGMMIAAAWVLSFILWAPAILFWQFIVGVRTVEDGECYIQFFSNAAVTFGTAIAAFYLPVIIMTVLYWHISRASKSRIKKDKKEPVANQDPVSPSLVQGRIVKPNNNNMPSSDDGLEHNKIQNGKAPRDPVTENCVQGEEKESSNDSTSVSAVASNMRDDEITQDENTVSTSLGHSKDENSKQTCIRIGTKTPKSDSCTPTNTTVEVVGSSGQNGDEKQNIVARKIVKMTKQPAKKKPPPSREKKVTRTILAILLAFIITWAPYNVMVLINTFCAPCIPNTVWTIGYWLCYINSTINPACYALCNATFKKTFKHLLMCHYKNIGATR

[3] = molecular target: T2, 5-HT2A (h) (Homo sapiens, UniProt P28223); assay: In vitro CEREP profiling, 5-HT2A (h) (agonist radioligand); assay type: binding; details: test compound concentration 10 uM
T2 construct: purchased Eurofins Cerep (SafetyScreen44), recognised from the panel format
T2 sequence (P28223 whole entry): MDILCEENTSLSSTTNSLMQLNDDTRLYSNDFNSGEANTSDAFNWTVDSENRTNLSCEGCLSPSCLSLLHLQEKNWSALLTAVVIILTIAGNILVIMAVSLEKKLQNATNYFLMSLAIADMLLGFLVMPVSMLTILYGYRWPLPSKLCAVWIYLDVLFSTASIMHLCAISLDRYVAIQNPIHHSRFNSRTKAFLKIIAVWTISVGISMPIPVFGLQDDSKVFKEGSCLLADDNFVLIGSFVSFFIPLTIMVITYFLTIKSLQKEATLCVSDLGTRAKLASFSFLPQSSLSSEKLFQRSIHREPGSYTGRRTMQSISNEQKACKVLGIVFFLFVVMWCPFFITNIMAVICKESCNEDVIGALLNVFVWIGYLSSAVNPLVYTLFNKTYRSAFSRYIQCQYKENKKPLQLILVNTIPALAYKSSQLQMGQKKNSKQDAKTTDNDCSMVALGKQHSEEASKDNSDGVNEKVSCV
Source text: (§1) Supplement media-1.zip/Safety_Panel_Profile.csv, table | column: perc_inhibition

[4] = molecular target: T3, MAO-A (Rattus norvegicus, UniProt P21396); assay: In vitro CEREP profiling, MAO-A (antagonist radioligand); assay type: binding; details: test compound concentration 10 uM
T3 construct: purchased Eurofins Cerep (SafetyScreen44), recognised from the panel format
T3 sequence (P21396 1-526): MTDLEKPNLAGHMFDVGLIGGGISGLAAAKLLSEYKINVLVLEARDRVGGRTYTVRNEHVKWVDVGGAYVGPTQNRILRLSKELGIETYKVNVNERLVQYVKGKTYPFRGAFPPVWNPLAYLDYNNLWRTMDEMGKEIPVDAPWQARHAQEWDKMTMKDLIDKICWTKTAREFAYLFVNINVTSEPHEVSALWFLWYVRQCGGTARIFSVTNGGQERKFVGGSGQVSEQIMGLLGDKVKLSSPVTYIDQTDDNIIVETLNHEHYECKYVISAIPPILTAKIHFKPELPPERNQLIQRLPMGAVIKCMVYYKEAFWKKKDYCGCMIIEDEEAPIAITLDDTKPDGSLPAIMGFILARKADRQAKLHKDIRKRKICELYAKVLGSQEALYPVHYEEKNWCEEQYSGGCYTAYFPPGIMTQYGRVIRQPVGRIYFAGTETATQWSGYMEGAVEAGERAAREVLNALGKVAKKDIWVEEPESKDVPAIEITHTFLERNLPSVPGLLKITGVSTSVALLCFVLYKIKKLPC
Source text: as §1

[5] = molecular target: T4, V1a (h) (Homo sapiens, UniProt P37288); assay: In vitro CEREP profiling, V1a (h) (agonist radioligand); assay type: binding; details: test compound concentration 10 uM
T4 construct: purchased Eurofins Cerep (SafetyScreen44), recognised from the panel format
T4 sequence (P37288 whole entry): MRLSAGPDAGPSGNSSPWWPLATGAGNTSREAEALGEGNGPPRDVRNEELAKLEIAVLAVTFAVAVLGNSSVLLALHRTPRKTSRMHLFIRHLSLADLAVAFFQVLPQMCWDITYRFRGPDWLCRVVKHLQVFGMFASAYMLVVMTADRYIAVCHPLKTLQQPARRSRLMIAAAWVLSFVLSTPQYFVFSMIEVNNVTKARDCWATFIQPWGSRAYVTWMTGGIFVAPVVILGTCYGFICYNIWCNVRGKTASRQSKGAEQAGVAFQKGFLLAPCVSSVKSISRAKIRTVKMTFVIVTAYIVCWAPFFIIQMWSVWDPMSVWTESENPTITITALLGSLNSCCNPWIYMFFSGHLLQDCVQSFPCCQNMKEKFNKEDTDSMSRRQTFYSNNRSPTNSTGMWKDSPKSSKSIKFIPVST
Source text: as §1

[6] = molecular target: T5, delta (DOP) (h) (Homo sapiens, UniProt P41143); assay: In vitro CEREP profiling, delta (DOP) (h) (agonist radioligand); assay type: binding; details: test compound concentration 10 uM
T5 construct: purchased Eurofins Cerep (SafetyScreen44), recognised from the panel format
T5 sequence (P41143 whole entry): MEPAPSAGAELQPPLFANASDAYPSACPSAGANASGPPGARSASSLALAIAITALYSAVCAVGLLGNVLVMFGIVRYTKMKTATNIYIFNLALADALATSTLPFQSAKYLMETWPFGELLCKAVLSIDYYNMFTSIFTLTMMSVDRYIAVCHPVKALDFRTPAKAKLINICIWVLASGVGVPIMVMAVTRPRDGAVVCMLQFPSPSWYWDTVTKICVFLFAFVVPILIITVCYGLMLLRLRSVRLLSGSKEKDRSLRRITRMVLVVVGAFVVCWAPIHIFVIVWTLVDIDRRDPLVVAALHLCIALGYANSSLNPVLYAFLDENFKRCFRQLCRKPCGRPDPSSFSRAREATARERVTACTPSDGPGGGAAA
Source text: as §1

[7] = tested on: Ca2+ channel (L, dihydropyridine site); assay: In vitro CEREP profiling, Ca2+ channel (L, dihydropyridine site) (antagonist radioligand); assay type: binding; details: test compound concentration 10 uM
Source text: as §1

[8] = molecular target: T6, Potassium Channel hERG (human) (Homo sapiens, UniProt Q12809); assay: In vitro CEREP profiling, Potassium Channel hERG (human)- [3H] Dofetilide; assay type: binding; details: test compound concentration 10 uM
T6 construct: purchased Eurofins Cerep (SafetyScreen44), recognised from the panel format
T6 sequence (Q12809 whole entry): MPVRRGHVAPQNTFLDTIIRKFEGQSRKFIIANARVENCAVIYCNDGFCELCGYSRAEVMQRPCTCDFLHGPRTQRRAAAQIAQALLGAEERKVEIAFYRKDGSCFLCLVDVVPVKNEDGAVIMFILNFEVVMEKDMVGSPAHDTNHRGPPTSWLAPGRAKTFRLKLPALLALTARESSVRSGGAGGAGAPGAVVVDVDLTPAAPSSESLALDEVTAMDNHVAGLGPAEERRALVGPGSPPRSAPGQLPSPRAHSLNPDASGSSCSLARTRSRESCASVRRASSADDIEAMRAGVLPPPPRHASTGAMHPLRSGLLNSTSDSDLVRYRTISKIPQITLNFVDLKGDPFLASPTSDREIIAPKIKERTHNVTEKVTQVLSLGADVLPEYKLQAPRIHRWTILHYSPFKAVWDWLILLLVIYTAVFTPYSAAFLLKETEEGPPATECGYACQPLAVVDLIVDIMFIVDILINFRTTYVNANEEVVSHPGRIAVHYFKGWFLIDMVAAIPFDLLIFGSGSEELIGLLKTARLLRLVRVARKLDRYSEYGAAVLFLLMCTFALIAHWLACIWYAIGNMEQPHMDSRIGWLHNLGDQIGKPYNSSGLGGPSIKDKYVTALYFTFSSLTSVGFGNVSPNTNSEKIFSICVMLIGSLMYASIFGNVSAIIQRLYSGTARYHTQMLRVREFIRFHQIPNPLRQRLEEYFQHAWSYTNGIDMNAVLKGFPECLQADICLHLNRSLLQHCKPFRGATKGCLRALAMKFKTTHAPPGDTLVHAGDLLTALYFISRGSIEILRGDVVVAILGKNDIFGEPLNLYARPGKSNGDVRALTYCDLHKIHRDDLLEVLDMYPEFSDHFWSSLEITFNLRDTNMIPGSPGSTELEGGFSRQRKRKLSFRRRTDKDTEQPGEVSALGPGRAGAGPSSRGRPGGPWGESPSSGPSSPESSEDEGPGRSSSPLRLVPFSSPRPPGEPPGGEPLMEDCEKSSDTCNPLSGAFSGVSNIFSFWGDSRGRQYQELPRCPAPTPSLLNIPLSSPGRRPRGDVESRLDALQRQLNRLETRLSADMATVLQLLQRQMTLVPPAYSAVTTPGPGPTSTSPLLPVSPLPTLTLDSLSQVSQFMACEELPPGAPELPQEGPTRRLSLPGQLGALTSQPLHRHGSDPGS
Source text: as §1

[9] = tested on: HeLa-ACE2 cells; details: for perc_max_measured: highest measured response of the dose series; for perc_min_measured: lowest measured response of the dose series
[10] = molecular target: hERG (Homo sapiens, UniProt Q12809); assay: In vitro hERG cardiotoxocity; details: for IC50: top test concentration 30 uM; for perc_inhibition_top_conc: at top test concentration 30 uM
Sequence of hERG (Q12809 whole entry): as above
Source text: Supplement media-1.zip/Cardiotoxicity.csv, table | column: ic50; perc_inhibition_top_conc

[11] = molecular target: T7, ETA (h) (Homo sapiens, UniProt P25101); assay: In vitro CEREP profiling, ETA (h) (agonist radioligand); assay type: binding; details: test compound 10 uM
T7 construct: purchased Eurofins Cerep (SafetyScreen44), recognised from the panel format
T7 sequence (P25101 21-427): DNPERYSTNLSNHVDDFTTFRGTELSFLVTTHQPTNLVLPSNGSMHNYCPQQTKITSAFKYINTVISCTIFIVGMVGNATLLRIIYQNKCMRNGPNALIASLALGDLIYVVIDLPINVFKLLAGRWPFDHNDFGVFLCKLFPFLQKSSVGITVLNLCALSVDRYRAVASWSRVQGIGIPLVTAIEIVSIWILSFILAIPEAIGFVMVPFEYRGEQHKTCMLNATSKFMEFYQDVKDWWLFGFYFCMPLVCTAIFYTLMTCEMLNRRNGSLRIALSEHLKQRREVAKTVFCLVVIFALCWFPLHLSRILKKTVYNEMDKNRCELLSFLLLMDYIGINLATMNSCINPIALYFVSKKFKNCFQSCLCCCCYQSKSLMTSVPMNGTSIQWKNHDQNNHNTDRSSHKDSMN
Source text: as §1

[12] = In vitro dog liver microsomal stability; assay type: in vitro ADME
Source text: Supplement media-1.zip/Hepatic_Microsomal_Stability.csv, table | column: clint; t_half

[13] = in vitro; details: human, hela-ace2 cells, 50.0
[14] = maximum measured response of dose series
[15] = minimum measured response of dose series
[16] = protocol HeLa-ACE2 cytotoxicity

Row | Compound | perc_max_measured ([1]; maximum measured response) [%] | perc_max_measured [1, 14] [%] | perc_min_measured ([1]; minimum measured response) [%] | perc_min_measured [1, 15] [%] | EC50 [1] | EC90 [1] | perc_inhibition (% inhibition of the binding of a ligand specific for each target) [2] [%] | perc_inhibition (% inhibition of the binding of a ligand specific for each target) [3] [%] | perc_inhibition (% inhibition of the binding of a ligand specific for each target) [4] [%] | perc_inhibition (% inhibition of the binding of a ligand specific for each target) [5] [%] | perc_inhibition (% inhibition of the binding of a ligand specific for each target) [6] [%] | perc_inhibition (% inhibition of the binding of a ligand specific for each target) [7] [%] | perc_inhibition (% inhibition of the binding of a ligand specific for each target) [8] [%] | CC50 ([9]; HeLa-ACE2 cytotoxicity) | perc_max_measured ([9]; HeLa-ACE2 cytotoxicity) | IC50 [10] [µM] | perc_inhibition (% inhibition of the binding of a ligand specific for each target) [11] [%] | clint [12] [µL/min/mg] | t_half [12] [min] | CC50 at 24 h [13] [µM] | also measured
1 | CC(C)[C@H](Nc1ncnc2[nH]c(-c3cnn(C)c3C#N)cc12)c1ccc2c(n1)OCCO2 [ASAP-0010715] | 105.242 | 125.33 | 1.508 | 4.425 | 0.508 µM and 0.819 µM | 1.96 µM and 3.36 µM | 18 | 15 | 4 | 27 | 58 | 9 | 29 | 12.5 µM and > 20 µM | 90.88% and 122.905% and 97.413% | 11 | 42 | 23.7 | 29.2 | > 20 | 
2 | CNCc1cc(-c2cc3c(N[C@@H](c4ccc5c(c4)S(=O)(=O)CCC5)C(C)C)ncnc3[nH]2)co1 [ASAP-0011176] | 134.366 | 113.346 | 28.123 | 56.361 | 11.6 µM and > 20 µM | > 20 µM | 52 | 29 | 11 | 13 | 53 | -3 | 26 | > 20 µM | 120.991% | > 30 | -1 | 20.0 | 34.7 | > 20 | cc10 ([9]; HeLa-ACE2 cytotoxicity): > 20.0 µM; perc_min_measured ([9]; HeLa-ACE2 cytotoxicity): 77.721%; CC50 [9, 16]: > 20 µM; cc10 [9, 16]: > 20.0 µM; perc_max_measured [9, 16]: 106.042%; perc_min_measured [9, 16]: 91.552%; perc_inhibition_top_conc [10]: 26.0%
3 | Cn1ncc(-c2cc3c(N[C@@H](c4ccc5c(n4)OCCO5)C(C)(C)C)ncnc3[nH]2)c1C#N [ASAP-0011221] | 101.751 | 108.122 | 4.671 | 8.006 | 1.49 µM and 1.6 µM | > 20 µM | 25 | -2 | 10 | 57 | 15 | 21 | 36 | > 20 µM | 97.859% and 124.489% | 19.5 | 9 | 17.8 | 38.8 | > 20 | cc10 ([9]; HeLa-ACE2 cytotoxicity): > 10.0 µM and > 20.0 µM; perc_min_measured ([9]; HeLa-ACE2 cytotoxicity): 51.321% and 74.575%
4 | C[C@H](C(=O)O)[C@@H](NC(=O)c1ncnc2[nH]ccc12)c1ccc(Br)cc1 [ASAP-0014722] |  | 104.611 | 91.919 | 71.809 | > 20 µM | > 20 µM | -4 | 1 | -1 | 62 | -24 | -12 | 14 | > 20 µM | 102.029% and 107.127% | > 30 | -2 | < 5.0 | > 139.0 | > 20 | cc10 ([9]; HeLa-ACE2 cytotoxicity): > 20.0 µM; perc_min_measured ([9]; HeLa-ACE2 cytotoxicity): 80.657% and 84.357%; perc_inhibition_top_conc [10]: 28.0%
5 | COc1ccc([C@H](Cc2nnn[nH]2)NC(=O)c2ncnc3[nH]ccc23)cc1 [ASAP-0015381] | 102.013 | 116.588 | 88.847 | 75.952 | > 20 µM | > 20 µM | -12 | -4 | 0 | 5 | -30 | -22 | 5 | > 20 µM | 115.218% and 123.48% | > 30 | 2 | < 5.0 | > 139.0 | > 20 | cc10 ([9]; HeLa-ACE2 cytotoxicity): > 20.0 µM; perc_min_measured ([9]; HeLa-ACE2 cytotoxicity): 79.698% and 90.022%; perc_inhibition_top_conc [10]: 27.0%
